In ChEMBL document CHEMBL1201862, “PubChem BioAssay data set” (2004):
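Method: 48-hour compound exposure of cells in 96-well plates, five concentrations, linear interpolation of endpoints. Here, GI50 denotes the concentration required for 50% inhibition of growth.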 Calls of active or inactive are those of the source. No stated cut-off is given here; in the data, active = GI50 up to about 1.1 µM and inactive = higher.

Experiments:
Assay in all cases: growth of human tumour cells (NCI), 48 h
[1] = system: 786-0
[2] = system: A498
[3] = system: A549
[4] = system: ACHN
[5] = system: BT-549
[6] = system: CAKI-1
[7] = system: CCRF-CEM
[8] = system: COLO 205
[9] = system: DU-145
[10] = system: EKVX
[11] = system: HCC 2998
[12] = system: HCT-116
[13] = system: HCT-15
[14] = system: HL-60
[15] = system: HOP-62
[16] = system: HOP-92
[17] = system: HT-29
[18] = system: Hs-578T
[19] = system: IGROV-1
[20] = system: K562
[21] = system: KM12
[22] = system: LOX IMVI
[23] = system: M14
[24] = system: MCF7
[25] = system: MDA-MB-231
[26] = system: MDA-MB-435
[27] = system: MDA-N
[28] = system: MOLT-4
[29] = system: Malme-3M
[30] = system: NCI-H226
[31] = system: NCI-H23
[32] = system: NCI-H460
[33] = system: NCI-H522
[34] = system: NCI/ADR-RES
[35] = system: OVCAR-3
[36] = system: OVCAR-4
[37] = system: OVCAR-5
[38] = system: OVCAR-8
[39] = system: PC-3
[40] = system: RPMI-8226
[41] = system: RXF 393
[42] = system: SF-268
[43] = system: SF-295
[44] = system: SF-539
[45] = system: SK-MEL-28
[46] = system: SK-MEL-2
[47] = system: SK-MEL-5
[48] = system: SK-OV-3
[49] = system: SN12C
[50] = system: SNB-19
[51] = system: SW-620
[52] = system: T47D
[53] = system: TK-10
[54] = system: U-251
[55] = system: UACC-257
[56] = system: UO-31

Cc1ccc(S(=O)(=O)N2CCSCCSCCN(S(=O)(=O)c3ccc(C)cc3)CCN(S(=O)(=O)c3ccc(C)cc3)CC2)cc1
GI50 [1]: > 100 µM (inactive) | GI50 [2]: > 100 µM (inactive) | GI50 [3]: > 100 µM (inactive) | GI50 [4]: > 100 µM (inactive) | GI50 [5]: > 100 µM (inactive) | GI50 [6]: > 100 µM (inactive) | GI50 [7]: > 100 µM (inactive) | GI50 [8]: > 100 µM (inactive) | GI50 [9]: > 100 µM (inactive) | GI50 [10]: > 100 µM (inactive) | GI50 [11]: > 100 µM (inactive) | GI50 [12]: > 100 µM (inactive) | GI50 [13]: > 100 µM | GI50 [14]: > 100 µM (inactive) | GI50 [15]: > 100 µM (inactive) | GI50 [16]: > 100 µM (inactive) | GI50 [17]: > 100 µM (inactive) | GI50 [18]: > 100 µM (inactive) | GI50 [19]: > 100 µM (inactive) | GI50 [20]: > 100 µM (inactive) | GI50 [21]: > 100 µM (inactive) | GI50 [22]: > 100 µM (inactive) | GI50 [23]: > 100 µM (inactive) | GI50 [24]: > 100 µM (inactive) | GI50 [25]: > 100 µM (inactive) | GI50 [26]: > 100 µM (inactive) | GI50 [27]: > 100 µM (inactive) | GI50 [28]: > 100 µM (inactive) | GI50 [29]: > 100 µM (inactive) | GI50 [30]: > 100 µM (inactive) | GI50 [31]: > 100 µM (inactive) | GI50 [32]: > 100 µM (inactive) | GI50 [33]: > 100 µM (inactive) | GI50 [34]: > 100 µM (inactive) | GI50 [35]: > 100 µM (inactive) | GI50 [36]: > 100 µM (inactive) | GI50 [37]: > 100 µM (inactive) | GI50 [38]: > 100 µM (inactive) | GI50 [39]: > 100 µM (inactive) | GI50 [40]: > 100 µM (inactive) | GI50 [41]: > 100 µM (inactive) | GI50 [42]: > 100 µM (inactive) | GI50 [43]: > 100 µM (inactive) | GI50 [44]: > 100 µM (inactive) | GI50 [45]: > 100 µM (inactive) | GI50 [46]: > 100 µM (inactive) | GI50 [47]: > 100 µM (inactive) | GI50 [48]: > 100 µM (inactive) | GI50 [49]: > 100 µM (inactive) | GI50 [50]: > 100 µM (inactive) | GI50 [51]: > 100 µM (inactive) | GI50 [52]: > 100 µM (inactive) | GI50 [53]: > 100 µM (inactive) | GI50 [54]: > 100 µM (inactive) | GI50 [55]: > 100 µM (inactive) | GI50 [56]: > 100 µM (inactive)
